The test system of the assay is TFEB. Kind of assay: TFEB nuclear translocation assay, HeLa wt cells. The assay is classed as cell-based. The conditions noted are these: 2 hrs compound treatment, Table 1 does not say HeLa wt or TRPML1 KO. The procedure, abridged:
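AC50 derived from the ratio of nuclear to perinuclear ring (−5 μm) anti-TFEB immunofluorescence, imaged at ×20 over four fields per well. HeLa wt or TRPML1 KO cells were exposed to compounds for 2 hrs at 37° C, then PFA-fixed and counterstained with Hoechst.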

As usually defined, the AC50 is the concentration giving half of the maximal activity seen. The molecule `O=S(=O)(Nc1ccccc1N1CCC(c2c(F)cccc2F)CC1)c1ccc(S(=O)(=O)N2CCOCC2)cc1` [Compound A-217, N-{2-[4-(2,6-difluorophenyl)piperidin-1-yl]phenyl}-4-(morpholine-4-sulfonyl)benzene-1-sulfonamide] displayed an AC50 (Homo sapiens, HeLa, 2 h) not above 2000 nM. `CC(=O)NC1(C)CCN(c2c(F)cccc2NS(=O)(=O)c2ccc(S(=O)(=O)N(C)C)cc2)CC1` [Compound A-795, N-(1-{2-[4-(dimethylsulfamoyl)benzenesulfonamido]-6-fluorophenyl}-4-methylpiperidin-4-yl)acetamide] displayed an AC50 (Homo sapiens, HeLa, 2 h) of 8010 to 9990 nM. As for `C[C@H](c1cccc(F)c1N1CCCCC1)S(=O)(=O)c1ccc(S(=N)(=O)N(C)C)cc1` (single isomer, unassigned) [Compound A-895], the AC50 is not below 10000 nM. Same read-out and setting: next, `CC(c1cc(Cl)cnc1N1CCC(CN2CCC(F)(F)CC2)CC1)S(=O)(=O)c1ccc(S(=O)(=O)N(C)C)cc1` (single isomer, unassigned) [Compound A-979, 4-((1-(5-chloro-2-(4-((4,4-difluoropiperidin-1-yl)methyl)piperidin-1-yl)pyridin-3-yl)ethyl)sulfonyl)-N,N-dimethylbenzenesulfonamide]: 2010 to 8000 nM.

`CN(C)S(=O)(=O)c1ccc(C(Nc2cccc(Cl)c2N2CCOCC2)C(F)(F)F)cc1` (centres unmarked) [Compound A-342, 4-(1-{[3-chloro-2-(morpholin-4-yl)phenyl]amino}-2,2,2-trifluoroethyl)-N,N-dimethylbenzene-1-sulfonamide] showed an AC50 (Homo sapiens, HeLa, 2 h) of 8010 to 9990 nM. Same read-out and setting: next, `CC1(C)CC2(CCN(c3c(F)cccc3NS(=O)(=O)Cc3ccccc3)CC2)CO1` [Compound A-702, N-(2-{3,3-dimethyl-2-oxa-8-azaspiro[4.5]decan-8-yl}-3-fluorophenyl)-1-phenylmethanesulfonamide]: not above 2000 nM. With `CN(C)C(c1ccc(S(=O)(=O)Nc2ccccc2N2CCC(c3ccc(Cl)cc3F)CC2)cc1)C(F)(F)F` (centres unmarked) [Compound A-222, N-{2-[4-(4-chloro-2-fluorophenyl)piperidin-1-yl]phenyl}-4-[1-(dimethylamino)-2,2,2-trifluoroethyl]benzene-1-sulfonamide], the AC50 (Homo sapiens, HeLa, 2 h) was not above 2000 nM.

`CC(c1cccc(F)c1N1CCCCC1)S(=O)(=O)c1ccc(S(=O)(=O)N(C)C)cc1` (single isomer, unassigned) [Compound A-912, 4-((1-(3-fluoro-2-(piperidin-1-yl)phenyl)ethyl)sulfonyl)-N,N-dimethylbenzenesulfonamide] returned an AC50 not above 2000 nM.

`CN(C)S(=O)(=O)c1ccc(S(=O)(=O)Nc2ccccc2N2CCC(C(=O)N3CCOCC3)CC2)cc1` [Compound A-761, N1,N1-dimethyl-N4-{2-[4-(morpholine-4-carbonyl)piperidin-1-yl]phenyl}benzene-1,4-disulfonamide] had an AC50 (Homo sapiens, HeLa, 2 h) not below 10000 nM. Molecule `COCC1(C)CCN(c2ccccc2NS(=O)(=O)c2ccc(C3CC3)s2)CC1` [Compound A-708, 5-cyclopropyl-N-{2-[4-(methoxymethyl)-4-methylpiperidin-1-yl]phenyl}thiophene-2-sulfonamide] gave an AC50 (Homo sapiens, HeLa, 2 h) not above 2000 nM. The same measure, in the same setting: next, `CC(C)(C)C(=O)N1CCN(c2ccccc2NS(=O)(=O)c2ccc(C(C)(F)F)cc2)CC1` [Compound A-590, 4-(1,1-difluoroethyl)-N-{2-[4-(2,2-dimethylpropanoyl)piperazin-1-yl]phenyl}benzene-1-sulfonamide]: 2010 to 8000 nM.

Molecule `CC(c1cccc(F)c1N1CCC(COC(C)(C)C)CC1)S(=O)(=O)c1ccc(C(F)F)cc1` (single isomer, unassigned) [Compound A-976, 4-(tert-butoxymethyl)-1-(2-(1-((4-(difluoromethyl)phenyl)sulfonyl)ethyl)-6-fluorophenyl)piperidine] yielded an AC50 (Homo sapiens, HeLa, 2 h) not above 2000 nM.

`CS(=O)(=O)c1ccc(S(=O)(=O)Nc2ccccc2N2CCC3(CC2)OCc2cc(F)ccc23)cc1` [Compound A-332, N-(2-{5-fluoro-3H-spiro[2-benzofuran-1,4′-piperidin]-1′-yl}phenyl)-4-methanesulfonylbenzene-1-sulfonamide] had an AC50 (Homo sapiens, HeLa, 2 h) of 2010 to 8000 nM. On the same count and under the same terms, next, `COCC1(C)CCN(c2ccccc2NS(=O)(=O)c2ccc(OCC3CC3)cc2)CC1` [Compound A-555, 4-(cyclopropylmethoxy)-N-{2-[4-(methoxymethyl)-4-methylpiperidin-1-yl]phenyl}benzene-1-sulfonamide]: 2010 to 8000 nM. In turn, `CN(C)S(=N)(=O)c1ccc(S(=O)(=O)Nc2cccc(F)c2N2CCC(CN3CC4CCC(C3)O4)CC2)cc1` (centres unmarked) [Compound A-853, N-(2-(4-((8-oxa-3-azabicyclo[3.2.1]octan-3-yl)methyl)piperidin-1-yl)-3-fluorophenyl)-4-(N,N-dimethylsulfamidimidoyl)benzenesulfonamide] registered an AC50 not above 2000 nM. Consider `O=S(=O)(Nc1ccccc1N1CCOCC1)c1ccc2c(c1)CCC2` [Compound A-760, N-[2-(morpholin-4-yl)phenyl]-2,3-dihydro-1H-indene-5-sulfonamide], for which the AC50 (Homo sapiens, HeLa, 2 h) is 2010 to 8000 nM.

On to `COCC1(C)CCN(c2ccccc2NS(=O)(=O)c2ccc3c(c2)OC(C)(C)C3)CC1` [Compound A-738, N-{2-[4-(methoxymethyl)-4-methylpiperidin-1-yl]phenyl}-2,2-dimethyl-2,3-dihydro-1-benzofuran-6-sulfonamide], for which, where the note is “Homo sapiens, HeLa, 2 h”, the AC50 was not above 2000 nM. `COCC1(C)CCN(c2ccccc2NS(=O)(=O)c2ccc(C(=O)C(C)C)cc2)CC1` [Compound A-641, N-{2-[4-(methoxymethyl)-4-methylpiperidin-1-yl]phenyl}-4-(2-methylpropanoyl)benzene-1-sulfonamide] returned an AC50 (Homo sapiens, HeLa, 2 h) of 8010 to 9990 nM. On to `CC(N1CCN(c2ccccc2NS(=O)(=O)c2ccc(Cl)cc2)CC1)C(F)(F)F` (centres unmarked) [Compound A-541, 4-chloro-N-{2-[4-(1,1,1-trifluoropropan-2-yl)piperazin-1-yl]phenyl}benzene-1-sulfonamide], for which, where the note is “Homo sapiens, HeLa, 2 h”, the AC50 is not above 2000 nM. Consider `COCC1(C)CCN(c2ccccc2NS(=O)(=O)c2ccc(S(=O)(=O)N(C)C)cc2)C(C)C1` (centres unmarked) [Compound A-745, N4-{2-[4-(methoxymethyl)-2,4-dimethylpiperidin-1-yl]phenyl}-N1,N1-dimethylbenzene-1,4-disulfonamide], for which, for the setting “Homo sapiens, HeLa, 2 h”, the AC50 was not below 10000 nM.

`CN(C)S(=O)(=O)c1ccc(S(=O)(=O)Nc2nnc(C3CCN(c4ccc(Cl)cc4F)CC3)s2)cc1` [Compound A-64, N1-(5-(1-(4-chloro-2-fluorophenyl)piperidin-4-yl)-1,3,4-thiadiazol-2-yl)-N4,N4-dimethylbenzene-1,4-disulfonamide]: the AC50 (Homo sapiens, HeLa, 2 h) is not below 10000 nM. Consider `CC(C1CCN(c2c(F)cccc2NS(=O)(=O)c2ccc(S(=N)(=O)N(C)C)cc2)CC1)N1C[C@@H](C)O[C@@H](C)C1` (single isomer, unassigned) [Compound A-871B], for which the AC50 is not above 2000 nM. `CC(C)CN1CCN(c2ccccc2C(C)S(=O)(=O)c2ccc(S(=O)(=O)N(C)C)cc2)CC1` (centres unmarked) [Compound A-604, N,N-dimethyl-4-(1-{2-[4-(2-methylpropyl)piperazin-1-yl]phenyl}ethanesulfonyl)benzene-1-sulfonamide] yielded an AC50 (Homo sapiens, HeLa, 2 h) not above 2000 nM.

For the setting “Homo sapiens, HeLa, 2 h”, `Cc1ccc(S(=O)(=O)Nc2ccccc2N2CCC(c3ccccn3)CC2)cc1` [Compound A-92, 4-methyl-N-{2-[4-(pyridin-2-yl)piperidin-1-yl]phenyl}benzene-1-sulfonamide] yielded an AC50 not above 2000 nM. On to `CC(c1ccccc1N1CCN(C(=O)OCc2ccccc2)CC1)S(=O)(=O)c1ccc(S(=O)(=O)N(C)C)cc1` (centres unmarked) [Compound A-556, benzyl 4-(2-{1-[4-(dimethylsulfamoyl)benzenesulfonyl]ethyl}phenyl)piperazine-1-carboxylate], for which the AC50 (Homo sapiens, HeLa, 2 h) is not above 2000 nM.

With `CN(C)S(=O)(=O)c1ccc(NC(=O)c2ccccc2N2CCN(c3ccc(Cl)cc3F)CC2)cc1` [Compound A-9, 2-(4-(4-chloro-2-fluorophenyl)piperazin-1-yl)-N-(4-(N,N-dimethylsulfamoyl)phenyl)benzamide], under “Homo sapiens, HeLa, 2 h”, the AC50 was not above 2000 nM. Regarding `Cc1ccc(CS(=O)(=O)Nc2ccccc2N2CCC3(CC2)COC(C)(C)C3)cc1C` [Compound A-663, N-(2-{3,3-dimethyl-2-oxa-8-azaspiro[4.5]decan-8-yl}phenyl)-1-(3,4-dimethylphenyl)methanesulfonamide], the AC50 (Homo sapiens, HeLa, 2 h) is not above 2000 nM. Turning to `CC(=O)Nc1cccc(NS(=O)(=O)c2ccc(S(=O)(=O)N(C)C)cc2)c1N1CCCCC1` [Compound A-827, N-{3-[4-(dimethylsulfamoyl)benzenesulfonamido]-2-(piperidin-1-yl)phenyl}acetamide], where the note is “Homo sapiens, HeLa, 2 h”, the AC50 was not below 10000 nM. In the case of `CN(C)S(=O)(=O)c1ccc(S(=O)(=O)n2nc(C3CCN(c4c(F)cccc4F)CC3)c3c2CCCC3)cc1` [Compound A-504, 4-({3-[1-(2,6-difluorophenyl)piperidin-4-yl]-4,5,6,7-tetrahydro-1H-indazol-1-yl}sulfonyl)-N,N-dimethylbenzene-1-sulfonamide], under “Homo sapiens, HeLa, 2 h”, the AC50 is not above 2000 nM. On the same count and under the same terms, next, `CC1(C)CC2(CCN(c3ccccc3NS(=O)(=O)Cc3ccc4c(c3)COCC4)CC2)CO1` [Compound A-712, 1-(3,4-dihydro-1H-2-benzopyran-7-yl)-N-(2-{3,3-dimethyl-2-oxa-8-azaspiro[4.5]decan-8-yl}phenyl)methanesulfonamide]: 2010 to 8000 nM.

In turn, `C[C@@H]1CN(CC2CCN(c3c(F)cccc3[C@H](C)S(=O)(=O)c3ccc(S(=N)(=O)N(C)C)cc3)CC2)C[C@H](C)O1` (single isomer, unassigned) [Compound A-1001] came in with an AC50 not above 2000 nM. The molecule `CC(c1cccc(C#N)c1N1CCC(CN2C[C@@H](C)O[C@@H](C)C2)CC1)S(=O)(=O)c1ccc(S(=O)(=O)N(C)C)cc1` (single isomer, unassigned) [Compound A-845, 4-((1-(3-cyano-2-(4-((2,6-dimethylmorpholino)methyl)piperidin-1-yl)phenyl)ethyl)sulfonyl)-N,N-dimethylbenzenesulfonamide] showed an AC50 (Homo sapiens, HeLa, 2 h) of 2010 to 8000 nM.

The values above are taken from patent US20230104936A1, “TRPML MODULATORS” (Casma Therapeutics, Inc., priority 2019, published 2023).
